# Experimental data published in ChEMBL document CHEMBL1201862, “PubChem BioAssay data set” (2004).
# The source made the active and inactive calls.
# Columns and labels:
# [1] = molecular target: NS3 (Hepatitis C virus, UniProt A3EZJ3); assay: NS3h DNA-binding inhibition IC50 – biochemical, fluorescence polarization, ChemBridge library, dose response (AID 743264)
# [2] = Luminescence Cell-Based Dose Retest to Confirm Inhibitors of Cancer Stem Cells. [Related pubchem assays (depositor defined):AID2717, AID2721]; assay type: functional; conditions: Homo sapiens
# [3] = molecular target: T1, High affinity choline transporter 1 (Homo sapiens, UniProt Q9GZV3); assay: human choline transporter blockers, potency – cell-based, 5-point CRC, membrane potential dye, dose response (AID 504840); assay type: functional
# T1 sequence (Q9GZV3 whole entry): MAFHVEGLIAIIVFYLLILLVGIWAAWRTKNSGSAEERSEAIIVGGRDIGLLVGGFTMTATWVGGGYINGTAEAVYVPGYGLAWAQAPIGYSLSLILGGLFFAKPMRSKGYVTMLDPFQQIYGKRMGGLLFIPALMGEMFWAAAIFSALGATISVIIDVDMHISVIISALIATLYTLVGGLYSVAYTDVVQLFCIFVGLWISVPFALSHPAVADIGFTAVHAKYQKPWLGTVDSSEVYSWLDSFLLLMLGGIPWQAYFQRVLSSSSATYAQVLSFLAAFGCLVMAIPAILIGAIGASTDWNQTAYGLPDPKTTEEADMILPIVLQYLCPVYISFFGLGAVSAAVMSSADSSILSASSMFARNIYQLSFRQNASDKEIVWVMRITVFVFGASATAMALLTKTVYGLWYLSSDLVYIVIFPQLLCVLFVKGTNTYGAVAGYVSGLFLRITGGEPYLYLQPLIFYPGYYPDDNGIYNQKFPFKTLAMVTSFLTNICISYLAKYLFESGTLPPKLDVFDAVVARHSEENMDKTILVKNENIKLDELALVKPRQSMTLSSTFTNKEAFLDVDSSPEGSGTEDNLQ
# [4] = molecular target: T1, High affinity choline transporter 1; assay: human choline transporter blockers, potency – cell-based, 10-point CRC, membrane potential dye, dose response (AID 588401); assay type: functional;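 further: membrane potential dye fluorescence of choline-evoked depolarization via CHT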
# [5] = molecular target: T2, Galanin receptor type 3 (Homo sapiens, UniProt O60755); assay: Fluorescence-based cell-based primary high throughput dose response assay to identify antagonists of the Galanin Receptor 3 (GalR3).; assay type: functional
# T2 sequence (O60755 whole entry): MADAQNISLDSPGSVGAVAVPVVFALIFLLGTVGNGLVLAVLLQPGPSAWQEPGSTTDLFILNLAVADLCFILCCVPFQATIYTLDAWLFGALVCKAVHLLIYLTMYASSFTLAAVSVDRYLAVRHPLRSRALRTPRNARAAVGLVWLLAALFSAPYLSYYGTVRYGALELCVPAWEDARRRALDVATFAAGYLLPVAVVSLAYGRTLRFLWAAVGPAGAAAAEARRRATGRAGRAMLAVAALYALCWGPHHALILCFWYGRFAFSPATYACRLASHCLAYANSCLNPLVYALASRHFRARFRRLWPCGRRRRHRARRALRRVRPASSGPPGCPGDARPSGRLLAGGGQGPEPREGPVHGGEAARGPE
# [6] = viability loss in HEK293T cells – cell-based, cherry-picks, cytotoxicity control for HIV Vif inhibitor project, dose response (AID 652208); assay type: functional
# [7] = cells; assay type: functional, cell-based; conditions: HEK-CNG
# [8] = molecular target: fMet-Leu-Phe receptor (Homo sapiens, UniProt P21462); assay: formyl peptide receptor binders – dose response (AID 519); assay type: functional
# [9] = molecular target: Protein Wnt-3a (Mus musculus, UniProt P27467); assay: SAR analysis of small molecule antagonists of Gli-SUFU in a Wnt3a luminescent reporter assay.; assay type: functional
# [10] = NIH-3T3 fibroblast cytotoxicity, dose response, cytotoxicity control, cell-based, fluorescence, Alamar Blue, secondary assay (AID 2327); assay type: functional;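 further: NIH-3T3 mouse fibroblasts cultured with fluconazole at 8 µg/mL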
# [11] = fluconazole-exposed Candida albicans growth modulators – fluorescence, retest, confirmation (AID 2467); assay type: functional, cell-based
# [12] = molecular target: Serine/threonine-protein phosphatase (Candida dubliniensis (strain CD36 / CBS 7987 / NCPF 3949 / NRRLY-17841) (Yeast), UniProt B9W6M3); assay: blockers of CaCl2-induced CDRE-lacZ signaling – S. cerevisiae, luminescence, secondary, dose response (AID 2388); assay type: functional, cell-based;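 further: yeast reporter cells carrying a calcineurin-responsive lacZ construct stimulated with calcium chloride; luminescent beta-galactosidase reporter signal in whole cells rather than isolated phosphatase activity; potency for inhibition where a drop in reporter signal means calcineurin blockade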
# [13] = molecular target: ATP-dependent molecular chaperone HSP82 (Candida albicans (strain WO-1) (Yeast), UniProt C4YTQ8); assay: steroid-induced GRE reporter decrease in yeast – S. cerevisiae, luminescence, Hsp90 inhibitor project, dose response (AID 2400); assay type: functional, cell-based;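 further: beta-galactosidase luminescence from glucocorticoid response element reporter as proxy for Hsp90 function; inhibitor potency where signal loss means Hsp90 inhibition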
# [14] = molecular target: Paired box protein Pax-8 (Homo sapiens, UniProt Q06710); assay: PAX8 transcriptional activity inhibition in RMG-I – RMG-I cells, luciferase, cherry-pick, dose response (AID 687027); assay type: functional, cell-based;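 further: luciferase reporter driven by Pax8 target thyroperoxidase promoter measured by SteadyGlo luminescence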
# [15] = CMV-driven luciferase expression suppression in HEK293 – cell-based, luminescence, dry powder, counter-screen for Pax8 inhibitor project, dose response (AID 743020); assay type: functional
# [16] = luciferase reporter signal suppression in cells – H4 neuroglioma cells, luminescence, dose response (AID 1990); assay type: functional, cell-based
# [17] = Luminescence Cell-Based Dose Response HTS to Identify Inhibitors of 5'UTR Stem-Loop Driven Prion Protein mRNA Translation in H4 Neuroglioblastoma Cells. [Related pubchem assays: 1827 (Project Summary), 1813 (Primary HTS)]; assay type: functional
# [18] = alpha-synuclein stem-loop luciferase translation blockers – H4 neuroglioma cells, luminescence, confirmation (AID 1988); assay type: functional, cell-based
# [19] = microbe, parasite or virus in culture; assay type: functional; conditions: Mycobacterium tuberculosis
# [20] = molecular target: Beta-lactamase (Pseudomonas aeruginosa, UniProt Q79MP6);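 further: biochemical dose-response test of metallo-beta-lactamase enzyme inhibition, read out by epi-absorbance; purified recombinant IMP-1 metallo-beta-lactamase with nitrocefin as substrate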
# [21] = molecular target: Beta-lactamase (Salmonella choleraesuis (strain SC-B67), UniProt Q5J463)
# [22] = system: INS1; assay: INS-1E survival protection against cytokine death – cell-based, luminescence, retest, dose response (AID 449756); assay type: functional; conditions: Rattus norvegicus;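 further: cell death triggered by IL-1 beta plus TNF-alpha plus IFN-gamma mixture; protective hits raise ATP signal compared with cytokine alone wells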
# [23] = molecular target: Major prion protein (Homo sapiens, UniProt P04156); assay type: functional, cell-based
# [24] = cells
# [25] = T. cruzi growth inhibition in host cells, dose response, cell-based, plate reader, dry powder, set 2 (AID 652275); assay type: functional
# [26] = molecular target: T3, Oxysterols receptor LXR-beta (Homo sapiens, UniProt P55055); assay type: functional, cell-based;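 further: agonist activity at LXR measured by a cell-based luminescence readout across a dose range, run as a counterscreen for daf-12 agonists; HEK293 cells with Gal4-LXR fusion and GAL4-driven luciferase reporter; potency for activation of Gal4-LXR reporter so compounds are agonists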
# T3 sequence (P55055 whole entry): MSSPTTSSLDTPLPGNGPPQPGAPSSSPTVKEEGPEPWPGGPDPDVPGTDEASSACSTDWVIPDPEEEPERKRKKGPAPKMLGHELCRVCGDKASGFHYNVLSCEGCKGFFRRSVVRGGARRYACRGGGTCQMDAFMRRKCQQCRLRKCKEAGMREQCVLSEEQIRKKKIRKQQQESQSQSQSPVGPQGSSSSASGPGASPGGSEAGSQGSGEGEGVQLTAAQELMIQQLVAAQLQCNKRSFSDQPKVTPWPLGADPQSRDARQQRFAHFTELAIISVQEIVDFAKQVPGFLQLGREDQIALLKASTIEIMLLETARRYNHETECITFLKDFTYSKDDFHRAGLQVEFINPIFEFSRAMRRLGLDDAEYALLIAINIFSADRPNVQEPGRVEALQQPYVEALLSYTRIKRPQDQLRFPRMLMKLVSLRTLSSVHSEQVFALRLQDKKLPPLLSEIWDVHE
# [27] = system: Streptococcus sp. 'group A'; assay: Streptococcus pyogenes SK(-)GAS viability under kanamycin – luminescence, BacTiterGlo, confirmation, counter-screen for streptokinase expression inhibitor project, dose response (AID 1900); assay type: functional, organism-based
# [28] = system: Streptococcus; assay: GAS UMAA2166 growth inhibition – luminescence, BacTiterGlo, counter-screen for streptokinase expression inhibitor project, dose response (AID 1915); assay type: functional, organism-based;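 further: potency for reduction of bacterial viability or growth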
# [29] = HGIII-sPLA2 enzyme inhibition potency – biochemical, QFRET, IC50, dose response (AID 743457);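 further: green fluorescence rise as the enzyme cleaves BODIPY PC-A2 in liposomes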
structure (smiles),measurement,setting,value
O=C1NC(=S)N(c2ccccc2F)C(=O)C1=Cc1ccco1,IC50,[1],3.35 µM (inactive)
C=CCNc1ncnc2c1ncn2C1OC(CO)C(O)C1O (centres undefined),AC50,[2],3.33 µM (active)
same,IC50,[3],9.17 µM (active)
same,IC50,[4],6.31 µM (active)
same,IC50,[5],> 0.369 µM (active)
same,AC50,[6],22.1 µM (active)
same,EC50,[7],15.8 µM (inactive)
CCOc1cccc(C(=O)C2=C(O)C(=O)N(Cc3cccnc3)C2c2ccco2)c1 (centres undefined),Ki,[8],> 66.7 µM (inactive)
COc1cc(OC)cc(C(=O)Nc2cc(N(C)C)ncn2)c1,IC50,[9],> 21.8 µM (inactive)
O=C(CCS(=O)(=O)c1ccc(Cl)cc1)Nc1nc(-c2ccncc2)cs1,EC50,[10],27.9 µM (active)
same,EC50,[11],5.04 µM (active)
same,EC50,[12],> 180 µM (inactive)
same,EC50,[13],> 150 µM (inactive)
same,AC50,[14],8.17 µM (active)
same,AC50,[15],< 3.35 µM (active)
CCOc1ccc(-c2cc(C(=O)NCCCn3ccnc3)c3cc(Br)ccc3n2)cc1,EC50,[16],> 120 µM (not active)
same,EC50,[17],> 120 µM (not active)
same,EC50,[18],> 120 µM (not active)
same,CC50,[19],16.7 µM (active)
same,IC50,[20],> 59.6 µM (inactive)
same,IC50,[21],> 59.6 µM (inactive)
same,AC50,[22],9.7 µM (active)
same,IC50,[23],4.38 µM (active)
same,IC50,[24],23.5 µM (inactive)
CC(C)N1CC2(CN(Cc3ccccc3F)C2)Oc2c(NC(=O)c3ccncc3)cccc2C1=O,AC50,[25],0.747 µM (active)
Cc1cccc(C(=N)NOC(=O)c2ccco2)c1,EC50,[26],> 67.6 µM (inactive)
O=C(/C=C/c1cccs1)NC(=S)NNC(=O)Cc1cccs1,EC50,[27],2.01 µM (active)
same,EC50,[28],5.99 µM (active)
same,IC50,[29],37 µM (inactive)
